ChEMBL document CHEMBL5137068, “Discovery of Hexahydrofuro[3,2-b]furans as New Kinase-Selective and Orally Bioavailable JAK3 Inhibitors for the Treatment of Leukemia Harboring a JAK3 Activating Mutant” (J Med Chem, 2022)
The source made the active and inactive calls. The calls are words filed in the database; no cut-off is given here.

Experiments:
U-937 [1] = test: Induction of cell cycle arrest in human U-937 cells assessed as accumulation at G0/G1 phase at 11 nM measured after 24 hrs by propidium iodide staining based flow cytometric analysis (reference value: 62.95%); type: functional
[2] = target: Tyrosine-protein kinase TXK (Homo sapiens) (UniProt P42681); test: Inhibition of TXK (unknown origin) at 0.5 uM relative to control
Sequence of Tyrosine-protein kinase TXK (Homo sapiens) (P42681 whole entry): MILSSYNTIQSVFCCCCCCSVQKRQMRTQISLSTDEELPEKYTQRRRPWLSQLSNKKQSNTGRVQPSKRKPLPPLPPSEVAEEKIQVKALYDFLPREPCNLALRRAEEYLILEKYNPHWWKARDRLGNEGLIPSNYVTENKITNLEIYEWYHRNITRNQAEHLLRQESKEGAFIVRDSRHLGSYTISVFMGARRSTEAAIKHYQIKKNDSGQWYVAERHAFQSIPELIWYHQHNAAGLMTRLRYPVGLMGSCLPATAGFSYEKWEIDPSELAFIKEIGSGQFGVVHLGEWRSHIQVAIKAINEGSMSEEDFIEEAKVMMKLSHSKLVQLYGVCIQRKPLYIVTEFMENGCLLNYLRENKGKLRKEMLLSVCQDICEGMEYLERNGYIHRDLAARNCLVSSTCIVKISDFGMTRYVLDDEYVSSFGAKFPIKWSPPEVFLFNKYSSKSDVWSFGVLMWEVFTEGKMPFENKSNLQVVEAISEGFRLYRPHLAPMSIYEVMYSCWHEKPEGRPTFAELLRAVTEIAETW

[3] = target: Signal transducer and activator of transcription 3 (Homo sapiens) (UniProt P40763); test: Inhibition of STAT3 activation in human U-937 cells assessed as decrease in P-STAT3 incubated for 0 to 24 hrs by Western blot analysis; type: cell-based; conditions: dose 200.0 µM, time 0-24 hrs, DDE = dose-dependent effect
[4] = Oral bioavailability in 12 hr fasted SPF Sprague-Dawley rat at 15 mg/kg upon 2 hrs fasting post-administration measured upto 24 hrs; type: ADME, organism-based; conditions: in vivo
[5] = Cmax in 12 hr fasted SPF Sprague-Dawley rat at 5 mg/kg, iv upon 2 hrs fasting post-administration measured upto 24 hrs; type: ADME, organism-based; design: dose 5 mg/kg, time < 24 hrs, route iv; conditions: in vivo
[6] = target: Cytoplasmic tyrosine-protein kinase BMX (Homo sapiens) (UniProt P51813); test: Inhibition of BMX (unknown origin) at 0.5 uM assessed as competition rate relative to control
U-937 [7] = test: Induction of cell cycle arrest in human U-937 cells assessed as downregulation of Cyclic E1 at 0 to 300 nM measured after 24 hrs by western blot analysis; type: functional, cell-based; conditions: dose 0-300 nM
U-937 [8] = test: Induction of cell cycle arrest in human U-937 cells assessed as accumulation at G2/M phase at 33 nM measured after 24 hrs by propidium iodide staining based flow cytometric analysis (reference value: 21.41%); type: functional
[9] = target: T1, Tyrosine-protein kinase JAK3 (Homo sapiens, UniProt P52333); test: Inhibition of human JAK3
T1 sequence (P52333 whole entry): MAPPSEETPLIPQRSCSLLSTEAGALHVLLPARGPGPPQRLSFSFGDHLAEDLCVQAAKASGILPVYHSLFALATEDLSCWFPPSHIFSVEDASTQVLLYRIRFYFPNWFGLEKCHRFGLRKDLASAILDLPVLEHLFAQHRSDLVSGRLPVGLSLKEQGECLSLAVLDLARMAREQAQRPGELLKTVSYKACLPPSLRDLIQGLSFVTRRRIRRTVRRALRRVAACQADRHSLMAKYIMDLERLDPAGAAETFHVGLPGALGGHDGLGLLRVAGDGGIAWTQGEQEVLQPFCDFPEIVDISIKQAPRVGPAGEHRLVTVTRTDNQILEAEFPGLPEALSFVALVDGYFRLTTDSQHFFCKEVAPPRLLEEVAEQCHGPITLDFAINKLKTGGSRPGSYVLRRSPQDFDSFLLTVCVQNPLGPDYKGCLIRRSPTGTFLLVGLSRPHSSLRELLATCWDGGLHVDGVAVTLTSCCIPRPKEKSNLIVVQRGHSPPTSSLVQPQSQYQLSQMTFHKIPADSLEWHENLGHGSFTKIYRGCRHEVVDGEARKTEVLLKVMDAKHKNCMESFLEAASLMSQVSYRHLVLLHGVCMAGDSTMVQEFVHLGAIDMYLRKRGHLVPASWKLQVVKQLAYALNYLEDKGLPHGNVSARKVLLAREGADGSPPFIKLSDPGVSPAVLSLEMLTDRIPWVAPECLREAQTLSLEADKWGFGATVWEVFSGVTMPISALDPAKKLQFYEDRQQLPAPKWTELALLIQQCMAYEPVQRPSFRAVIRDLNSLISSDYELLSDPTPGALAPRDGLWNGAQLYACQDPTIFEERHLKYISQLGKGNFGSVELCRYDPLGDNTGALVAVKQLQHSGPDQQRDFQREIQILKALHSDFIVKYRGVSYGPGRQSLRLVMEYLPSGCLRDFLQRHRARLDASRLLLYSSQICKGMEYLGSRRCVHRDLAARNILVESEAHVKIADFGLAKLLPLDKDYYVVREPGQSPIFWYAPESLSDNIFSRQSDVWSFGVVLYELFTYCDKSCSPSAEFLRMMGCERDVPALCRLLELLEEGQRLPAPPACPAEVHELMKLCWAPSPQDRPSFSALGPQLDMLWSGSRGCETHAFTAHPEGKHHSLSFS

U-937 [10] = test: Induction of cell cycle arrest in human U-937 cells assessed as accumulation at G2/M phase at 11 nM measured after 24 hrs by propidium iodide staining based flow cytometric analysis (reference value: 21.41%); type: functional
[11] = target: Tyrosine-protein kinase BTK (Homo sapiens) (UniProt Q06187); test: Inhibition of BTK (unknown origin) at 0.5 uM assessed as competition rate relative to control
Sequence of Tyrosine-protein kinase BTK (Homo sapiens) (Q06187 whole entry): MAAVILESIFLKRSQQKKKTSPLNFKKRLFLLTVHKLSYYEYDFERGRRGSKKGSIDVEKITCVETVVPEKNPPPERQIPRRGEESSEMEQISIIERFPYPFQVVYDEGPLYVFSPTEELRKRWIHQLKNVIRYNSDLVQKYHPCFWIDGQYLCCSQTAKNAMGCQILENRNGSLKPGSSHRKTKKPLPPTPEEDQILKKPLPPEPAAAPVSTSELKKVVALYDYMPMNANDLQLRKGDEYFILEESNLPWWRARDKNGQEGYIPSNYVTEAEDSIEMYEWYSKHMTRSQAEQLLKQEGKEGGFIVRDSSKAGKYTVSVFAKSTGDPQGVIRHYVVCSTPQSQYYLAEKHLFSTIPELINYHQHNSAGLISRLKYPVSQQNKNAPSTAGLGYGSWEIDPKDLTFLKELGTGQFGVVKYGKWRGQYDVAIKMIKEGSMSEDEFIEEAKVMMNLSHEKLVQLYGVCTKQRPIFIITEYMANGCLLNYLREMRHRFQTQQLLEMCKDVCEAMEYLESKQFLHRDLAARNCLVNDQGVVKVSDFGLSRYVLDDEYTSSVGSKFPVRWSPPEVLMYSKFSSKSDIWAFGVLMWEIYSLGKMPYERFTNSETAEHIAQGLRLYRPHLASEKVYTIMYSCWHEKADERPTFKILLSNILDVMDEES

U-937 [12] = test: Induction of cell cycle arrest in human U-937 cells assessed as accumulation at G2/M phase at 300 nM measured after 24 hrs by propidium iodide staining based flow cytometric analysis (reference value: 21.41%); type: functional
[13] = target: Epidermal growth factor receptor (Homo sapiens) (UniProt P00533); test: Inhibition of EGFR (unknown origin) at 0.5 uM relative to control
Sequence of Epidermal growth factor receptor (Homo sapiens) (P00533 whole entry): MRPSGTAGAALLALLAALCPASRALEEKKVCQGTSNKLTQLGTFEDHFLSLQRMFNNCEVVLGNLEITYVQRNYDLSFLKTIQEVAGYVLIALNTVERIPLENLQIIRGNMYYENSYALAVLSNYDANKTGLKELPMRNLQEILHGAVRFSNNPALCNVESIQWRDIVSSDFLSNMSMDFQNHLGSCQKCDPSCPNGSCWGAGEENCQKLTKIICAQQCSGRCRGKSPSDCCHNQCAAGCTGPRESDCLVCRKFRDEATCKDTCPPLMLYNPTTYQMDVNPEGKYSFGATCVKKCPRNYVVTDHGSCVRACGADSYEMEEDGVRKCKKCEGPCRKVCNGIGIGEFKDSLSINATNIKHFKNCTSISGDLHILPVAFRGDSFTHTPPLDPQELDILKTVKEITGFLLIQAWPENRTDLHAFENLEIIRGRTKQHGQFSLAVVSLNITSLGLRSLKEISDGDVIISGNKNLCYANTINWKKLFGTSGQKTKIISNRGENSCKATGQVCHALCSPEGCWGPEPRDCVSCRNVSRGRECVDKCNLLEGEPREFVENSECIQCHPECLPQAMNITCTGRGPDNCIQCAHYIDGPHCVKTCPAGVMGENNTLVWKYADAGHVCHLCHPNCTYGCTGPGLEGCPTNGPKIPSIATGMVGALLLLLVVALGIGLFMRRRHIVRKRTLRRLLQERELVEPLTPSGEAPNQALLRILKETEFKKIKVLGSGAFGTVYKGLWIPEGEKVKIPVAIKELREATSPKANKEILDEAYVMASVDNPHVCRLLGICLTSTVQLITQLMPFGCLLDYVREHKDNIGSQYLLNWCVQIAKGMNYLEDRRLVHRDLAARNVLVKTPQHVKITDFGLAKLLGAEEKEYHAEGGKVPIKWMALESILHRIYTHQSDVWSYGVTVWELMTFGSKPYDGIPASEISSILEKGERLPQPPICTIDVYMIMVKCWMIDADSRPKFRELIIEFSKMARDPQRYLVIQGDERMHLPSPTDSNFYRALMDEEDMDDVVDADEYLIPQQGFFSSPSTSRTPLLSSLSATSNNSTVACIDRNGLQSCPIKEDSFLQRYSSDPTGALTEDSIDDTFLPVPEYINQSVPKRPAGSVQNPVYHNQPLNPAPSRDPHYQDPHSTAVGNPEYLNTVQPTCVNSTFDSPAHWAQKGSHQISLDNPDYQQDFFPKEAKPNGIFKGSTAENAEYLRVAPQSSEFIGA

U-937 [14] = test: Induction of cell cycle arrest in human U-937 cells assessed as accumulation at S phase at 33 nM measured after 24 hrs by propidium iodide staining based flow cytometric analysis (reference value: 15.35%); type: functional
[15] = target: [Pyruvate dehydrogenase (acetyl-transferring)] kinase isozyme 1, mitochondrial (Homo sapiens) (UniProt Q15118); test: Inhibition of PDK1 (unknown origin) at 0.5 uM relative to control
BaF3 = test: cells; conditions: Mus musculus, BaF3, 72 h
[16] = target: Receptor tyrosine-protein kinase erbB-4 (Homo sapiens) (UniProt Q15303); test: Inhibition of HER4 (unknown origin) at 0.5 uM assessed as competition rate relative to control
U-937 [17] = test: Induction of cell cycle arrest in human U-937 cells assessed as accumulation at G0/G1 phase at 100 nM measured after 24 hrs by propidium iodide staining based flow cytometric analysis (reference value: 62.95%); type: functional
[18] = target: Cyclin-Y/Cyclin-dependent kinase 16 (Homo sapiens, UniProt Q00536); test: Inhibition of human CDK16/cyclin-Y protein-protein complex; type: protein-complex assay
Sequence of Cyclin-Y/Cyclin-dependent kinase 16 (Q00536 whole entry): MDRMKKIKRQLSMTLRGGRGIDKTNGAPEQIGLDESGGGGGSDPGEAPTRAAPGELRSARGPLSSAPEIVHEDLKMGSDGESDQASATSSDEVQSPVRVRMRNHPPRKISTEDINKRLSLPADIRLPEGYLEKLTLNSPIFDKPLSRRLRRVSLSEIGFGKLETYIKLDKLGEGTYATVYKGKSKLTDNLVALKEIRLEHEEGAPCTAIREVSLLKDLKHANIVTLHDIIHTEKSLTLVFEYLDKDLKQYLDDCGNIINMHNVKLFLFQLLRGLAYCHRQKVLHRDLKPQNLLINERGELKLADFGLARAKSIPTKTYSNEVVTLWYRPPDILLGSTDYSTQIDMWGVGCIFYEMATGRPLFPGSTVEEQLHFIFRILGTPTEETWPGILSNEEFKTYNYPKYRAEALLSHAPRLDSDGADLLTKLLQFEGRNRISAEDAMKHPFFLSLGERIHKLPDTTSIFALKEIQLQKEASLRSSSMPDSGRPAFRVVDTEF
Sequence of Cyclin-Y/Cyclin-dependent kinase 16 (Q8ND76 whole entry, further chain): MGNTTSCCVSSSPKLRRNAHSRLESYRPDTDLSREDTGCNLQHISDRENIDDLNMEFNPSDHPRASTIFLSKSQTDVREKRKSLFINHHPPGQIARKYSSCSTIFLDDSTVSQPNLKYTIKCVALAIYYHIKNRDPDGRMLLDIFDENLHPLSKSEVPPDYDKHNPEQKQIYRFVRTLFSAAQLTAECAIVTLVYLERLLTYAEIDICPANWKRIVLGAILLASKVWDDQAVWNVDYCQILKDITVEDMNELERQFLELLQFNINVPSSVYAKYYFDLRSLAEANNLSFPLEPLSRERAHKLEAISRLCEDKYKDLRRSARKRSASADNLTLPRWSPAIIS

[19] = target: Tyrosine-protein kinase Tec (Homo sapiens) (UniProt P42680); test: Inhibition of TEC (unknown origin) at 0.5 uM relative to control
Sequence of Tyrosine-protein kinase Tec (Homo sapiens) (P42680 whole entry): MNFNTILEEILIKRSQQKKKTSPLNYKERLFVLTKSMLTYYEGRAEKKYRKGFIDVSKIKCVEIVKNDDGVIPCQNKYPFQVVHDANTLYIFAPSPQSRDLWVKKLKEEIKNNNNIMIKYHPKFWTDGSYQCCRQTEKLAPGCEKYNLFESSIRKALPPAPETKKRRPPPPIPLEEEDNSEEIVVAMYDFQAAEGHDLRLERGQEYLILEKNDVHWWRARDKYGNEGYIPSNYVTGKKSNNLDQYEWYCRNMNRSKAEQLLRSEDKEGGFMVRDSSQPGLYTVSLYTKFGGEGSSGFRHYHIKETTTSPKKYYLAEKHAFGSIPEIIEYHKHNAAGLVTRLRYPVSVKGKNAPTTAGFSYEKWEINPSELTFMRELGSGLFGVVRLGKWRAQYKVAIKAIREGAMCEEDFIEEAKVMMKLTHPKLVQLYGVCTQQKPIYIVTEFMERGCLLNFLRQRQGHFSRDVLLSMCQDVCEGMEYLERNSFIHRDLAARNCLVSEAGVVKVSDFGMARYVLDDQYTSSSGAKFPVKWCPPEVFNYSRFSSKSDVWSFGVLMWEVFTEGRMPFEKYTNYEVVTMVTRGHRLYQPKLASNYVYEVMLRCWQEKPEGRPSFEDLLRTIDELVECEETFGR

[20] = target: [Pyruvate dehydrogenase (acetyl-transferring)] kinase isozyme 1, mitochondrial (Homo sapiens) (UniProt Q15118); test: Inhibition of PDK1 (unknown origin) at 0.5 uM assessed as competition rate relative to control
[21] = target: Tyrosine-protein kinase TXK (Homo sapiens) (UniProt P42681); test: Inhibition of TXK (unknown origin) at 0.5 uM assessed as competition rate relative to control
[22] = target: T2, Tyrosine-protein kinase JAK3 (Homo sapiens) (UniProt P52333); test: Inhibition of JAK3 in human U-937 cells assessed as decrease in P-JAK3 phosphorylation at 200 uM pretreated for 10 hrs followed by compound washout by immunoblotting analysis; type: cell-based
T2 sequence (whole entry): T1 sequence (P52333 whole entry)

[23] = target: Tyrosine-protein kinase JAK1 (Homo sapiens, UniProt P23458); test: Inhibition of human JAK1 at 0.5 uM relative to control
Sequence of Tyrosine-protein kinase JAK1 (P23458 whole entry): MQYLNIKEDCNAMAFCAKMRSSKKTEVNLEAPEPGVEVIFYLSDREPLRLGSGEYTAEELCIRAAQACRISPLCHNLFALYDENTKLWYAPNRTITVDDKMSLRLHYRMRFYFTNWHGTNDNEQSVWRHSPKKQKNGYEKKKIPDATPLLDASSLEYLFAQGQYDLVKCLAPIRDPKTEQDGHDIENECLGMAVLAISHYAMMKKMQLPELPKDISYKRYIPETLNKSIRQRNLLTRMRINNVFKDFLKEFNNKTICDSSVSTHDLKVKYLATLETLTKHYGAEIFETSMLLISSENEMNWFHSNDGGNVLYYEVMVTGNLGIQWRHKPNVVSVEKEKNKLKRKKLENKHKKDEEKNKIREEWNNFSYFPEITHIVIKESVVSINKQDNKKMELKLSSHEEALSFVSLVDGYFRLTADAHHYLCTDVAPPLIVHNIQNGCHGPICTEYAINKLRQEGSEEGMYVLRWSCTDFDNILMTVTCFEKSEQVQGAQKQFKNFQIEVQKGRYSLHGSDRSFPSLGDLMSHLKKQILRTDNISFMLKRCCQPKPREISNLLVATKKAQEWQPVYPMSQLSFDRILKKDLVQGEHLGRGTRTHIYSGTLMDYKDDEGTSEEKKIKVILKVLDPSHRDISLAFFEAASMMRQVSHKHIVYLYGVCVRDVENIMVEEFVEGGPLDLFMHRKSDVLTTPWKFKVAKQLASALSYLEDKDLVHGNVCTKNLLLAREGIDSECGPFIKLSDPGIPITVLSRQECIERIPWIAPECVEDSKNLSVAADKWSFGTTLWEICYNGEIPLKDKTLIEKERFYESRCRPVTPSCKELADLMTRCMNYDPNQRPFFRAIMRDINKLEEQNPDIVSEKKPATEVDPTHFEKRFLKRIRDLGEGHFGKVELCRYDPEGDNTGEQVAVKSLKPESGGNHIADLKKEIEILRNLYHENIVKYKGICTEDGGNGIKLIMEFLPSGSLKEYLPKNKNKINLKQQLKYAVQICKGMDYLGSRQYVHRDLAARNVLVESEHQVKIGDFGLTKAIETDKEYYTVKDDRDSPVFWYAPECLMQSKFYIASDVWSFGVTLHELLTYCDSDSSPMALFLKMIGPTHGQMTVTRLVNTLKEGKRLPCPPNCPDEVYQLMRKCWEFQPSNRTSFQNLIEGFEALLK

For C=CC(=O)Nc1cc(Nc2ncc(Cl)c(O[C@@H]3CO[C@H]4[C@@H]3OC[C@H]4OC)n2)ccc1N(C)CCN(C)C, the Activity (U-937 [1]) was 62.58%, the inhibition [2] was 103% and the inhibition [3] was “Dde”. It also gave a bioavailability [4] of 20.7%, a Cmax [5] of 911 ng/mL and an inhibition [6] of 40%. The Activity (U-937 [7]) was “Active”, the Activity (U-937 [8]) was 21.31% and the IC50 [9] was 8 nM. It also gave an Activity (U-937 [10]) of 21.98%, an inhibition [11] of 40% and an Activity (U-937 [12]) of 15.33%. It also gave an inhibition [13] of 94%, an Activity (U-937 [14]) of 13.62% and an inhibition [15] of 111%. For the same compound, the IC50 (BaF3) was 134 nM, the inhibition [16] was 40% and the Activity (U-937 [17]) was 72.06%. It also gave an IC50 [18] of 135 nM, an inhibition [19] of 99% and an inhibition [20] of 40%. For the same compound, the inhibition [21] was 40%, the inhibition [22] was “Active” and the inhibition [23] was 84%.
